The record followed here is patent US20140378416A1, “SILYL-CONTAINING HETEROCYCLIC COMPOUNDS AND METHODS OF USE THEREOF FOR THE TREATMENT OF VIRAL DISEASES” (priority 2011, published 2014).

One experiment relates to HCV replicon 1a Y93H. Put plainly: Cell-based HCV replicon assay (TaqMan), genotype 1a Y93H mutant replicon. The note with it: Hepatitis C virus, 72 h, read-out: 1a Y93H EC90, HCV 1a Y93H mutant replicon cells, replicon RNA by TaqMan on day 3; EC90 = concentration for ΔCT=3.2 over baseline. On the procedure: (§1) Measurement of inhibition by compounds of the present invention was performed using the HCV replicon system. Several different replicons encoding different HCV genotypes or mutations were used. In addition, potency measurements were made using different formats of the replicon assay, including different ways of measurements and different plating formats. See Jan M. Vrolijk et al., A replicons-based bioassay for the measurement of interferons in patients with chronic hepatitis C, 110 J. VIROLOGICAL METHODS 201 (2003); Steven S. Carroll et al., Inhibition of Hepatitis C Virus RNA Replication by 2′-Modified Nucleoside Analogs, 278(14) J. BIOLOGICAL CHEMISTRY 11979 (2003). However, the underlying principles are common to all of these determinations, and are outlined below.
(§2) Compounds of the present invention were assayed for cell-based anti-HCV activity using the following protocol. Replicon cells were seeded at 5000 cells/well in 96-well collagen I-coated Nunc plates in the presence of the test compound. Various concentrations of test compound, typically in 10 serial 2-fold dilutions, were added to the assay mixture, with the starting concentration ranging from 250 μM to 1 μM. The final concentration of DMSO was 0.5%, fetal bovine serum was 5%, in the assay media. Cells were harvested on day 3 by the addition of 1× cell lysis buffer (Ambion cat #8721). The replicon RNA level was measured using real time PCR (TaqMan® assay). The amplicon was located in 5B. The PCR primers were: 5B.2F, ATGGACAGGCGCCCTGA (SEQ. ID NO. 1); 5B.2R, […] (SEQ. ID NO. 2); the probe sequence was FAM-labeled CACGCCATGCGCTGCGG (SEQ. ID NO. 3). GAPDH RNA was used as endogenous control and was amplified in the same reaction as NS5B (multiplex PCR) using primers and VIC-labeled probe recommended by the manufacturer (PE Applied Biosystem). The real-time […] reactions were run on ABI PRISM 7900HT Sequence Detection System using the following program: 48° C. for 30 minutes, 95° C. for 10 minutes, 40 cycles of 95° C. for 15 sec, 60° C. for 1 minute. The ACT values (CT5B-CTGAPDH) were plotted against the concentration of test compound and fitted to the sigmoid dose-response model using XLfit4 (MDL). EC50 was defined as the concentration of inhibitor necessary to achieve ΔCT=1 over the projected baseline; EC90 the concentration necessary to achieve ΔCT=3.2 over the baseline. Alternatively, to quantitate the absolute amount of replicon RNA, a standard curve was established by including serially diluted T7 transcripts of replicon RNA in the Taqman assay. All TaqMan® reagents were from PE Applied Biosystems. Such an assay procedure was described in detail in e.g. Malcolm et al., Antimicrobial Agents and Chemotherapy 50: 1013-1020 (2006).
(§3) HCV replicon EC50 assay data for various replicons and mutants was calculated for selected compounds of the present invention using this method and is provided in the tables above herein.
For orientation: A replicon is a self-replicating genome or part of one, used to study replication in cells.

In the next experiment the test system is HCV replicon 2b. Put plainly: Cell-based HCV replicon assay (TaqMan), genotype 2b replicon. As to conditions: Hepatitis C virus, 72 h, read-out: 2b EC90, HCV 2b replicon cells, replicon RNA by TaqMan on day 3; EC90 = concentration for ΔCT=3.2 over baseline. On the procedure:
as §1, §2, §3

In a further experiment the test system is HCV replicon 1b. Kind of experiment: Cell-based HCV replicon assay (TaqMan), genotype 1b replicon. The note with it: Hepatitis C virus, 72 h, HCV 1b replicon cells, replicon RNA by TaqMan on day 3; EC90 = concentration for ΔCT=3.2 over baseline. On the procedure: as §1, §2, §3
In the next experiment the test system is HCV replicon 1a. Put plainly: Cell-based HCV replicon assay (TaqMan), genotype 1a replicon. As to conditions: Hepatitis C virus, 72 h, HCV 1a replicon cells, replicon RNA by TaqMan on day 3; EC90 = concentration for ΔCT=3.2 over baseline. On the procedure:
as §1, §2, §3

A word on the EC90: it is the concentration at which the effect reaches the 90% level. `COC(=O)N[C@@H](Cc1c[nH]c2ccccc12)C(=O)N1CCC[C@H]1c1ncc(-c2ccc(-c3ccc(-c4cnc([C@@H]5C[Si](C)(C)CN5C(=O)[C@H](Cc5c[nH]c6ccccc56)NC(=O)OC)[nH]4)cc3)cc2)[nH]1` [Compound 17]: the concentration for an effect of 90% (EC90) was 1000 nM in the experiment on HCV replicon 1a Y93H, 1000 nM with HCV replicon 2b, 1000 nM with HCV replicon 1b and 9.36 nM with HCV replicon 1a.
With `COC(=O)N[C@@H](Cn1ncnn1)C(=O)N1CCC[C@H]1c1ncc(-c2ccc(-c3ccc(-c4cnc([C@@H]5C[Si](C)(C)CN5C(=O)[C@H](Cn5ncnn5)NC(=O)OC)[nH]4)cc3)cc2)[nH]1` [Compound 27], the concentration for an effect of 90% (EC90) worked out at 1000 nM with HCV replicon 1a Y93H, 138 nM in the experiment on HCV replicon 2b, 2.17 nM in the experiment with HCV replicon 1b and 6.11 nM in the experiment with HCV replicon 1a.
As for `COC(=O)N[C@H](C(=O)N1CCC[C@H]1c1ncc(-c2ccc(-c3ccc(-c4cnc([C@@H]5C[Si](C)(C)CN5C(=O)[C@@H](NC(=O)OC)C5CCOCC5)[nH]4)cc3)cc2)[nH]1)C1CCOCC1` [Compound 33], the EC90 in the experiment with HCV replicon 1a Y93H was determined as 43 nM; in the experiment on HCV replicon 2b, 7.6 nM; in the experiment on HCV replicon 1b, 0.09 nM.
Regarding `COC(=O)N[C@H](C(=O)N1C[C@H](F)C[C@H]1c1ncc(-c2ccc(C#Cc3ccc(-c4cnc([C@@H]5C[Si](C)(C)CN5C(=O)[C@@H](NC(=O)OC)C(C)C)[nH]4)cc3)cc2)[nH]1)C(C)C` [Compound 58], the 90% effect concentration (EC90) with HCV replicon 1a Y93H was greater than 100 nM; in the experiment on HCV replicon 2b, greater than 100 nM; in the experiment on HCV replicon 1b it was 0.03 nM; with HCV replicon 1a, greater than 1 nM.
For `COC(=O)NC1(C(=O)N2CCC[C@H]2c2ncc(-c3ccc(-c4ccc(-c5cnc([C@@H]6C[Si](C)(C)CN6C(=O)C6(NC(=O)OC)CCC6)[nH]5)cc4)cc3)[nH]2)CCC1` [Compound 31], the 90% effect concentration (EC90) in the experiment on HCV replicon 1a Y93H is greater than 1000 nM; in the experiment on HCV replicon 2b it was greater than 1000 nM; with HCV replicon 1b, 2.2 nM.
In the case of `COC(=O)N[C@H](C(=O)N1CCC[C@H]1c1ncc(-c2ccc(-c3ccc(-c4cnc([C@@H]5C[Si](C)(C)CN5C(=O)[C@@H](NC(=O)OC)C(C)(C)OC)[nH]4)cc3)cc2)[nH]1)C(C)(C)OC` [Compound 35], the 90% effect concentration (EC90) with HCV replicon 1a Y93H is greater than 1000 nM; with HCV replicon 2b it was greater than 1000 nM; with HCV replicon 1b, 0.09 nM.
With `COC(=O)N[C@H](C(=O)N1CCC[C@H]1c1ncc(-c2ccc(-c3ccc(-c4cnc([C@@H]5C[Si](C)(C)CN5C(=O)[C@@H](NC(=O)OC)[C@H](O)C(C)C)[nH]4)cc3)cc2)[nH]1)[C@H](O)C(C)C` [Compound 39], the EC90 in the experiment with HCV replicon 1a Y93H was greater than 1000 nM; with HCV replicon 2b, 510 nM; with HCV replicon 1b, 0.03 nM.
With `CC[C@@H](O)[C@H](NC(=O)OC)C(=O)N1CCC[C@H]1c1ncc(-c2ccc(-c3ccc(-c4cnc([C@@H]5C[Si](C)(C)CN5C(=O)[C@@H](NC(=O)OC)[C@H](O)CC)[nH]4)cc3)cc2)[nH]1` [Compound 38], the EC90 in the experiment on HCV replicon 1a Y93H is greater than 1000 nM; in the experiment on HCV replicon 2b it was greater than 1000 nM; in the experiment with HCV replicon 1b, 0.21 nM.
For the compound `COC(=O)N[C@H](C(=O)N1C[Si](C)(C)C[C@H]1c1ncc(-c2ccc(-c3ccc(-c4[nH]c([C@@H]5CCCN5C(=O)[C@@H](NC(=O)OC)C(C)C)nc4Cl)cc3)cc2)[nH]1)C(C)C` [Compound 64], the 90% effect concentration (EC90) in the experiment on HCV replicon 1a Y93H came out at 344 nM; in the experiment with HCV replicon 2b it was 99 nM; in the experiment on HCV replicon 1a it was 0.17 nM.
The corresponding values for `COC(=O)N[C@H](C(=O)N1C[Si](C)(C)C[C@H]1c1ncc(-c2ccc(-c3ccc(-c4[nH]c([C@@H]5C[C@H]6C[C@H]6N5C(=O)[C@@H](NC(=O)OC)C(C)C)nc4F)cc3)cc2)[nH]1)C(C)C` [Compound 44] are 285 nM, 168 nM and 0.17 nM.
On to `C[Si]1(C)C[C@@H](c2ncc(-c3ccc(-c4ccc(-c5[nH]c([C@@H]6CCCN6C(=O)[C@H]6CCCO6)nc5Cl)cc4)cc3)[nH]2)N(C(=O)[C@H]2CCCO2)C1` [Compound 67], for which the EC90 was 510 nM with HCV replicon 1a Y93H, greater than 1000 nM in the experiment on HCV replicon 2b and 211 nM in the experiment with HCV replicon 1a.
Consider `COC(=O)N[C@@H](CC1CC1)C(=O)N1CCC[C@H]1c1ncc(-c2ccc(-c3ccc(-c4cnc([C@@H]5C[Si](C)(C)CN5C(=O)[C@H](CC5CC5)NC(=O)OC)[nH]4)cc3)cc2)[nH]1` [Compound 37], for which the figures for the 90% effect concentration (EC90) in the experiment with HCV replicon 1a Y93H, with HCV replicon 2b and with HCV replicon 1b were 425 nM, 888 nM and 0.03 nM, respectively.
On to `COC(=O)N[C@H](C(=O)N1C[Si](C)(C)C[C@H]1c1nc(Cl)c(-c2ccc(-c3ccc(-c4[nH]c([C@@H]5C[C@H]6C[C@H]6N5C(=O)[C@@H](NC(=O)OC)C(C)C)nc4Cl)cc3)cc2)[nH]1)C(C)C` [Compound 51], for which the results for the 90% effect concentration (EC90) with HCV replicon 1a Y93H, in the experiment on HCV replicon 2b and in the experiment on HCV replicon 1a were 13.7 nM, 2.9 nM and 0.008 nM, respectively.
In the same order, the values of `COC(=O)N[C@H](C(=O)N1C[Si](C)(C)C[C@H]1c1ncc(-c2ccc(-c3ccc(-c4cnc([C@@H]5C[C@H]6C[C@H]6N5C(=O)[C@@H](NC(=O)OC)C5CCOCC5)[nH]4)cc3)cc2)[nH]1)C1CCOCC1` [Compound 48] are 144 nM, 9 nM and 0.18 nM.
The corresponding values for `COC(=O)N[C@H](C(=O)N1C[Si](C)(C)C[C@H]1c1ncc(-c2ccc(-c3ccc(-c4[nH]c([C@@H]5CCCN5C(=O)[C@@H](NC(=O)OC)C(C)C)nc4C4CC4)cc3)cc2)[nH]1)C(C)C` [Compound 63] are 882 nM, 451 nM and 0.69 nM.
As for `COC(=O)N[C@@H](CC(C)(C)C)C(=O)N1CCC[C@H]1c1ncc(-c2ccc(-c3ccc(-c4cnc([C@@H]5C[Si](C)(C)CN5C(=O)[C@H](CC(C)(C)C)NC(=O)OC)[nH]4)cc3)cc2)[nH]1` [Compound 36], the values for the EC90 with HCV replicon 1a Y93H, with HCV replicon 2b and in the experiment with HCV replicon 1b were 617 nM, 434 nM and 0.03 nM, respectively.
With `CC(C)(C)OC(=O)N1C[Si](C)(C)C[C@H]1c1nc(Cl)c(-c2ccc(-c3ccc(-c4[nH]c([C@@H]5C[C@H]6C[C@H]6N5C(=O)OC(C)(C)C)nc4Cl)cc3)cc2)[nH]1` [Compound 49], the 90% effect concentration (EC90) in the experiment on HCV replicon 1a Y93H, in the experiment on HCV replicon 2b and in the experiment on HCV replicon 1a was greater than 1000 nM each time.
Turning to `COC(=O)N[C@@H](CSC)C(=O)N1CCC[C@H]1c1ncc(-c2ccc(-c3ccc(-c4cnc([C@@H]5C[Si](C)(C)CN5C(=O)[C@H](CSC)NC(=O)OC)[nH]4)cc3)cc2)[nH]1` [Compound 32], the EC90 was greater than 1000 nM in the experiment with HCV replicon 1a Y93H, 144 nM in the experiment on HCV replicon 2b and 0.03 nM in the experiment on HCV replicon 1b.
As for `COC(=O)N[C@@H](C(=O)N1CCC[C@@H]1c1ncc(-c2ccc(-c3ccc(-c4cnc([C@H]5C[Si](C)(C)CN5C(=O)[C@H](NC(=O)OC)C5CC5)[nH]4)cc3)cc2)[nH]1)C1CC1` [Compound 23], the figures for the EC90 in the experiment on HCV replicon 1a Y93H, in the experiment on HCV replicon 2b and with HCV replicon 1a were 1000 nM, 550 nM and 1.16 nM, respectively.
The corresponding values for `CC(C)(C)OC(=O)N1C[Si](C)(C)C[C@H]1c1ncc(-c2ccc(-c3ccc(-c4cnc([C@@H]5C[C@H]6C[C@H]6N5C(=O)OC(C)(C)C)[nH]4)cc3)cc2)[nH]1` [Compound 46] are greater than 1000 nM, 422 nM and greater than 1000 nM.
